Measured values as given in article PMC3690454, “14-3-3 Proteins Interact with a Hybrid Prenyl-Phosphorylation Motif to Inhibit G Proteins” (Cell, 2013).
Square brackets hold non-standard residues; d marks the D form. Peptide text beside a SMILES is read from it. * marks the point of attachment. Geranylgeranyl = CC(C)=CCC/C(C)=C/CC/C(C)=C/CC/C(C)=C/C*; Biotin = O=C1N[C@H]2[C@H](CS[C@H]2CCCCC(=O)*)N1; Farnesyl = CC(C)=CCC/C(C)=C/CC/C(C)=C/C*; pT = C[C@@H](OP(=O)(O)O)[C@H](N)C(=O)O; pS = N[C@@H](COP(=O)(O)O)C(=O)O; X1 = CC(C)=CCC/C(C)=C/C*; Ahx = NCCCCCC(=O)O; Prenyl = CC(C)=CC*

Assays:
Type in all cases: binding
[1] = molecular target: T1, 14-3-3ζ (Homo sapiens, UniProt P63104); assay: Isothermal titration calorimetry of Rnd3 C-terminal peptides with 14-3-3ζ; settings: ITC, 25°C, 50 mM Tris pH 7.5, 100 mM NaCl, 1 mM TCEP, one-site model; mean ± SD, n = 3
T1 construct: hexa-His; made in house; host or cells: E. coli BL21(DE3) Star
T1 sequence (P63104 1-245): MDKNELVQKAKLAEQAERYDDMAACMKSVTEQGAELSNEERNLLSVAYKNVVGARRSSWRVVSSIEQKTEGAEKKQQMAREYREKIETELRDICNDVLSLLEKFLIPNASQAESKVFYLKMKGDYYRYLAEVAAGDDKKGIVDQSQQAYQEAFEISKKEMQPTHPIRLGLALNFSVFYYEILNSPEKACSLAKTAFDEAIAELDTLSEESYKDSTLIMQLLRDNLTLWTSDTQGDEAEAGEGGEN
Description: ITC measurements were carried out using a VP-ITC200 instrument (GE Healthcare). The 14-3-3ζ domain (see Extended Experimental Procedures) was used at 50–60 μM in ITC buffer (50 mM Tris [pH 7.5]), 100 mM NaCl, 1 mM TCEP). Rnd3 C-terminal peptides were solubilized in ITC buffer and used at 500–600 μM. Titrations were carried out at 25°C in triplicate. Each titration was fitted to a simple one-site binding model using the Origin software provided with the instrument. Titrations with nonbinding peptides were carried out at 15°C and 25°C.
GST-14-3-3β protein was expressed as previously reported ([Yaffe et al., 1997]). A hexa-His-tagged version of 14-3-3ζ was expressed and purified essentially as previously reported ([Kostelecky et al., 2009]). In brief, the E. coli strain BL21(DE3) Star (Invitrogen) was transformed with the expression plasmid that was maintained by 34 μg/ml chloramphenicol. E. coli cells were grown to OD600nm of 0.7-0.8 in TB medium at 37°C and protein expression induced by 1 mM IPTG for 5 hr at 30°C. Pelleted cells were suspended in buffer A (25 mM Tris [pH 7.5], 100 mM NaCl, 1 mM EDTA, and 1 mM DTT) and disrupted by sonication. Insoluble material was cleared by high-speed centrifugation and the cleared lysate applied to a 5 ml HisTrap column using an AKTA system (GE Healthcare). The 14-3-3ζ protein was eluted with a linear gradient (0–500 mM) of Imidazole in buffer A. Finally, the protein was subjected to size-exclusion chromatography using a High-Load S200 pg column. As previously described, 14-3-3ζ eluted as a dimer with a molecular weight of ∼60 kDa. The final yield of 14-3-3ζ was 30–40 mg per liter of TB medium.

[2] = molecular target: T1, 14-3-3ζ; assay: Biolayer interferometry (Octet RED96), immobilised biotinylated peptides, 14-3-3ζ in solution; settings: for Kd: kinetic fit, peptide immobilised at 1 μg/ml, 25 mM Tris, 150 mM NaCl, 0.1% Tween-20, association 300 s, dissociation 300 s, NB = no binding; for Kd / koff / kon: typical experiment (n ≥ 3)
Description: (§1) Biolayer interferometry was carried out using an Octet RED96 instrument (ForteBio). Biotinylated peptides were immobilized on streptavadin-coated biosensors (ForteBio) at a concentration of 1 μg/ml in BI buffer (25 mM Tris, 150 mM NaCl, 0.1% Tween-20), for 300 s. The immobilization typically reached a response level of 2 nm. Association and dissociation curves were obtained through addition of a dilution series of 14-3-3ζ ([…]) for 300 s followed by dissociation in BI buffer for 300 s using the Octet acquisition software. The binding data were fitted using the Octet analysis software.

[3] = molecular target: T2, 14-3-3δ (Homo sapiens, UniProt P63104); assay: Biolayer interferometry (Octet Red96) of candidate protein C-terminal peptides, Table S5; settings: for koff: typical experiment (n ≥ 3); for affinity for 14-3-3 (in words): compared with farnesylated or geranylgeranylated Rnd3 peptides
T2 construct: hexa-His; made in house; host or cells: E. coli BL21(DE3) Star
T2 sequence (P63104 1-245): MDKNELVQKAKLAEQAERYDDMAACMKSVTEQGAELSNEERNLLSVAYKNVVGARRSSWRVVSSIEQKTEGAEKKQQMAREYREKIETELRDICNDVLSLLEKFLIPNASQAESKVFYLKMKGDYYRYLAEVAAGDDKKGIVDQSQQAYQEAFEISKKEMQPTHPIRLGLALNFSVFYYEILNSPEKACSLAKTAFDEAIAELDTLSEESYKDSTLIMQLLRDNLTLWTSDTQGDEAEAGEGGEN
Description: as §1
Table S5. Interactions of C-Terminal Peptides from Candidate Proteins with 14-3-3, […]
The affinities of the indicated phosphorylated and geranylgeranylated peptides for 14-3-3δ were determined by biolayer interferometry using an Octet Red96 instrument. Data of a typical experiment (n ≥ 3) along with statistics of the fit (χ2, R2) are shown. Peptide sequences from the C-terminus of the indicated proteins (last 10 amino acids of the mature protein sequence, terminating with Cys of CAAX box) are shown in single letter amino acid code, with pS/pT denoting phosphorylated serine/threonine. The modifications added to the C-terminal Cys are indicated. GG, geranylgeranylated; KD, dissociation constant; kon, association rate constant; koff, dissocation rate constant.

SMILES | Kd [1] [nM] | Kd [2] [nM] | koff [2] [s⁻¹] | kon [2] [M⁻¹ s⁻¹] | fold lower affinity for 14-3-3 compared to Rnd3 peptides with two, three and four isoprenyl groups [2] | koff [3] [s⁻¹] | affinity for 14-3-3 (in words) [3]
CC(C)=CCC/C(C)=C/CC/C(C)=C/CSC[C@H](NC(=O)[C@H](COP(=O)(O)O)NC(=O)[C@H](CCCCN)NC(=O)[C@H](C)NC(=O)[C@H](CCCCN)NC(=O)[C@H](CC(=O)O)NC(=O)[C@H](CCCCN)NC(=O)[C@H](CCCNC(=N)N)NC(=O)[C@H](CC(C)C)NC(=O)[C@@H](N)CC(=O)O)C(=O)O [+P+F] (H-DLRKDKAK[pS]C(Farnesyl)-OH) | 69 ± 25 | 32.4 | 0.028 | 860000 |  |  | 
CC(C)=CCC/C(C)=C/CC/C(C)=C/CC/C(C)=C/CSC[C@H](NC(=O)[C@H](COP(=O)(O)O)NC(=O)[C@H](CCCCN)NC(=O)[C@H](C)NC(=O)[C@H](CCCCN)NC(=O)[C@H](CC(=O)O)NC(=O)[C@H](CCCCN)NC(=O)[C@H](CCCNC(=N)N)NC(=O)[C@H](CC(C)C)NC(=O)[C@H](CC(=O)O)NC(=O)CCCCCNC(=O)CCCC[C@@H]1SC[C@@H]2NC(=O)N[C@@H]21)C(=O)O [+P+GG] ({Biotin-Ahx}-DLRKDKAK[pS]C(Geranylgeranyl)-OH) |  | 23.2 | 0.021 | 890000 |  |  | 
CC(C)=CCC/C(C)=C/CSC[C@H](NC(=O)[C@H](COP(=O)(O)O)NC(=O)[C@H](CCCCN)NC(=O)[C@H](C)NC(=O)[C@H](CCCCN)NC(=O)[C@H](CC(=O)O)NC(=O)[C@H](CCCCN)NC(=O)[C@H](CCCNC(=N)N)NC(=O)[C@H](CC(C)C)NC(=O)[C@H](CC(=O)O)NC(=O)CCCCCNC(=O)CCCC[C@@H]1SC[C@@H]2NC(=O)N[C@@H]21)C(=O)O [+P+G] ({Biotin-Ahx}-DLRKDKAK[pS]C(X1)-OH) |  | 56.5 | 0.032 | 570000 |  |  | 
CC(C)=CCSC[C@H](NC(=O)[C@H](COP(=O)(O)O)NC(=O)[C@H](CCCCN)NC(=O)[C@H](C)NC(=O)[C@H](CCCCN)NC(=O)[C@H](CC(=O)O)NC(=O)[C@H](CCCCN)NC(=O)[C@H](CCCNC(=N)N)NC(=O)[C@H](CC(C)C)NC(=O)[C@H](CC(=O)O)NC(=O)CCCCCNC(=O)CCCC[C@@H]1SC[C@@H]2NC(=O)N[C@@H]21)C(=O)O [+P+Ipr] ({Biotin-Ahx}-DLRKDKAK[pS]C(Prenyl)-OH) |  | 556 | 0.13 | 240000 | approximately 10 fold |  | 
CC(C)=CCC/C(C)=C/CC/C(C)=C/CC/C(C)=C/CSC[C@H](NC(=O)[C@@H](NC(=O)[C@H](CCCCN)NC(=O)[C@H](CO)NC(=O)[C@H](CCCCN)NC(=O)[C@H](CCCCN)NC(=O)[C@H](CC(=O)O)NC(=O)[C@H](CC(=O)O)NC(=O)CNC(=O)CNC(=O)CCCCCNC(=O)CCCC[C@@H]1SC[C@@H]2NC(=O)N[C@@H]21)[C@@H](C)OP(=O)(O)O)C(=O)O [PDE6C] ({Biotin-Ahx}-GGDDKKSK[pT]C(Geranylgeranyl)-OH) |  |  |  |  |  | 0.018 | 
CC(C)=CCC/C(C)=C/CC/C(C)=C/CC/C(C)=C/CSC[C@H](NC(=O)[C@H](COP(=O)(O)O)NC(=O)[C@H](CCCCN)NC(=O)[C@H](CO)NC(=O)[C@H](CCCNC(=N)N)NC(=O)[C@H](CCCNC(=N)N)NC(=O)[C@H](CCC(=O)O)NC(=O)[C@@H](NC(=O)[C@H](CC(N)=O)NC(=O)[C@@H](NC(=O)CCCCCNC(=O)CCCC[C@@H]1SC[C@@H]2NC(=O)N[C@@H]21)[C@@H](C)O)[C@@H](C)O)C(=O)O [RPRG] ({Biotin-Ahx}-TNTERRSK[pS]C(Geranylgeranyl)-OH) |  |  |  |  |  | 0.022 | intermediate affinity
CC(C)=CCC/C(C)=C/CC/C(C)=C/CC/C(C)=C/CSC[C@H](NC(=O)[C@H](COP(=O)(O)O)NC(=O)[C@H](CO)NC(=O)[C@H](CCCCN)NC(=O)[C@H](CCCCN)NC(=O)[C@H](CCCNC(=N)N)NC(=O)[C@H](C)NC(=O)[C@H](CCCCN)NC(=O)CNC(=O)[C@@H]1CCCN1C(=O)CCCCCNC(=O)CCCC[C@@H]1SC[C@@H]2NC(=O)N[C@@H]21)C(=O)O [Rap1B] ({Biotin-Ahx}-PGKARKKS[pS]C(Geranylgeranyl)-OH) |  |  |  |  |  | 0.055 | lower affinity
CC[C@H](C)[C@H](NC(=O)[C@@H]1CCCN1C(=O)[C@@H](NC(=O)[C@@H]1CCCN1C(=O)CCCCCNC(=O)CCCC[C@@H]1SC[C@@H]2NC(=O)N[C@@H]21)[C@@H](C)O)C(=O)N[C@@H](CCCCN)C(=O)N[C@@H](CCCNC(=N)N)C(=O)NCC(=O)N[C@@H](CCCNC(=N)N)C(=O)N[C@@H](COP(=O)(O)O)C(=O)N[C@@H](CSC/C=C(\C)CC/C=C(\C)CC/C=C(\C)CCC=C(C)C)C(=O)O [RhoG] ({Biotin-Ahx}-PTPIKRGR[pS]C(Geranylgeranyl)-OH) |  |  |  |  |  | 0.035 | lower affinity
